Results: the NIST ThermoML archive (doi:10.1016/j.jct.2012.03.003)

Assay: xn = mol fraction of the nth substance listed
Conditions: Liquid, Vibrating tube method

COc1cc2c(cc1O)CC1c3c(cc(O)c(OC)c3-2)CCN1C (stereo not given) [boldine] + CCCO
Conditions | mass density [kg/m3]
343 K, 1000 kPa, x1 = 0.0018 | 765.31
343 K, 2000 kPa, x1 = 0.0018 | 766.28
343 K, 3000 kPa, x1 = 0.0018 | 767.25
343 K, 4000 kPa, x1 = 0.0018 | 768.23
343 K, 5000 kPa, x1 = 0.0018 | 769.21
343 K, 6000 kPa, x1 = 0.0018 | 770.18
343 K, 7000 kPa, x1 = 0.0018 | 771.15
343 K, 8000 kPa, x1 = 0.0018 | 772.11
343 K, 9000 kPa, x1 = 0.0018 | 773.07
343 K, 10000 kPa, x1 = 0.0018 | 774.02
343 K, 11000 kPa, x1 = 0.0018 | 774.96
343 K, 12000 kPa, x1 = 0.0018 | 775.89
343 K, 13000 kPa, x1 = 0.0018 | 776.81
343 K, 14000 kPa, x1 = 0.0018 | 777.73
343 K, 15000 kPa, x1 = 0.0018 | 778.63
343 K, 16000 kPa, x1 = 0.0018 | 779.51
343 K, 17000 kPa, x1 = 0.0018 | 780.4
343 K, 18000 kPa, x1 = 0.0018 | 781.25
343 K, 19000 kPa, x1 = 0.0018 | 782.1
343 K, 20000 kPa, x1 = 0.0018 | 782.93
343.01 K, 1000 kPa, x1 = 0.0077 | 775.45
343.01 K, 1000 kPa, x1 = 0.0142 | 786.8
343.01 K, 2000 kPa, x1 = 0.0077 | 776.42
343.01 K, 2000 kPa, x1 = 0.0142 | 787.75
343.01 K, 3000 kPa, x1 = 0.0077 | 777.38
343.01 K, 3000 kPa, x1 = 0.0142 | 788.7
343.01 K, 4000 kPa, x1 = 0.0077 | 778.34
343.01 K, 4000 kPa, x1 = 0.0142 | 789.64
343.01 K, 5000 kPa, x1 = 0.0077 | 779.31
343.01 K, 5000 kPa, x1 = 0.0142 | 790.58
343.01 K, 6000 kPa, x1 = 0.0077 | 780.26
343.01 K, 6000 kPa, x1 = 0.0142 | 791.54
343.01 K, 7000 kPa, x1 = 0.0077 | 781.23
343.01 K, 7000 kPa, x1 = 0.0142 | 792.46
343.01 K, 8000 kPa, x1 = 0.0077 | 782.18
343.01 K, 8000 kPa, x1 = 0.0142 | 793.4
343.01 K, 9000 kPa, x1 = 0.0077 | 783.12
343.01 K, 9000 kPa, x1 = 0.0142 | 794.32
343.01 K, 10000 kPa, x1 = 0.0077 | 784.05
343.01 K, 10000 kPa, x1 = 0.0142 | 795.24
343.01 K, 11000 kPa, x1 = 0.0077 | 784.98
343.01 K, 11000 kPa, x1 = 0.0142 | 796.17
343.01 K, 12000 kPa, x1 = 0.0077 | 785.91
343.01 K, 12000 kPa, x1 = 0.0142 | 797.07
343.01 K, 13000 kPa, x1 = 0.0077 | 786.82
343.01 K, 13000 kPa, x1 = 0.0142 | 797.96
343.01 K, 14000 kPa, x1 = 0.0077 | 787.72
343.01 K, 14000 kPa, x1 = 0.0142 | 798.86
343.01 K, 15000 kPa, x1 = 0.0077 | 788.61
343.01 K, 15000 kPa, x1 = 0.0142 | 799.72
343.01 K, 16000 kPa, x1 = 0.0077 | 789.48
343.01 K, 16000 kPa, x1 = 0.0142 | 800.59
343.01 K, 17000 kPa, x1 = 0.0077 | 790.35
343.01 K, 17000 kPa, x1 = 0.0142 | 801.44
343.01 K, 18000 kPa, x1 = 0.0077 | 791.2
343.01 K, 18000 kPa, x1 = 0.0142 | 802.3
343.01 K, 19000 kPa, x1 = 0.0077 | 792.04
343.01 K, 19000 kPa, x1 = 0.0142 | 803.11
343.01 K, 20000 kPa, x1 = 0.0077 | 792.86
343.01 K, 20000 kPa, x1 = 0.0142 | 803.92
343.02 K, 1000 kPa, x1 = 0.0112 | 782.08
343.02 K, 2000 kPa, x1 = 0.0112 | 783.03
343.02 K, 3000 kPa, x1 = 0.0112 | 783.98
343.02 K, 4000 kPa, x1 = 0.0112 | 784.93
343.02 K, 5000 kPa, x1 = 0.0112 | 785.88
343.02 K, 6000 kPa, x1 = 0.0112 | 786.83
343.02 K, 7000 kPa, x1 = 0.0112 | 787.77
343.02 K, 8000 kPa, x1 = 0.0112 | 788.71
343.02 K, 9000 kPa, x1 = 0.0112 | 789.64
343.02 K, 10000 kPa, x1 = 0.0112 | 790.57
343.02 K, 11000 kPa, x1 = 0.0112 | 791.49
343.02 K, 12000 kPa, x1 = 0.0112 | 792.4
343.02 K, 13000 kPa, x1 = 0.0112 | 793.29
343.02 K, 14000 kPa, x1 = 0.0112 | 794.19
343.02 K, 15000 kPa, x1 = 0.0112 | 795.06
343.02 K, 16000 kPa, x1 = 0.0112 | 795.93
343.02 K, 17000 kPa, x1 = 0.0112 | 796.79
343.02 K, 18000 kPa, x1 = 0.0112 | 797.62
343.02 K, 19000 kPa, x1 = 0.0112 | 798.46
343.02 K, 20000 kPa, x1 = 0.0112 | 799.28
343.04 K, 1000 kPa, x1 = 0.0046 | 771.67
343.04 K, 2000 kPa, x1 = 0.0046 | 772.63
343.04 K, 3000 kPa, x1 = 0.0046 | 773.6
343.04 K, 4000 kPa, x1 = 0.0046 | 774.56
343.04 K, 5000 kPa, x1 = 0.0046 | 775.44
343.04 K, 6000 kPa, x1 = 0.0046 | 776.45
343.04 K, 7000 kPa, x1 = 0.0046 | 777.41
343.04 K, 8000 kPa, x1 = 0.0046 | 778.35
343.04 K, 9000 kPa, x1 = 0.0046 | 779.29
343.04 K, 10000 kPa, x1 = 0.0046 | 780.23
343.04 K, 11000 kPa, x1 = 0.0046 | 781.16
343.04 K, 12000 kPa, x1 = 0.0046 | 782.09
343.04 K, 13000 kPa, x1 = 0.0046 | 782.98
343.04 K, 14000 kPa, x1 = 0.0046 | 783.89
343.04 K, 15000 kPa, x1 = 0.0046 | 784.78
343.04 K, 16000 kPa, x1 = 0.0046 | 785.65
343.04 K, 17000 kPa, x1 = 0.0046 | 786.52
343.04 K, 18000 kPa, x1 = 0.0046 | 787.37
343.04 K, 19000 kPa, x1 = 0.0046 | 788.26
343.04 K, 20000 kPa, x1 = 0.0046 | 789.03
352.94 K, 1000 kPa, x1 = 0.0018 | 756.19
352.94 K, 1000 kPa, x1 = 0.0112 | 772.97
352.94 K, 1000 kPa, x1 = 0.0142 | 777.66
352.94 K, 2000 kPa, x1 = 0.0018 | 757.24
352.94 K, 2000 kPa, x1 = 0.0112 | 774.02
352.94 K, 2000 kPa, x1 = 0.0142 | 778.69
352.94 K, 3000 kPa, x1 = 0.0018 | 758.3
352.94 K, 3000 kPa, x1 = 0.0112 | 775.24
352.94 K, 3000 kPa, x1 = 0.0142 | 779.72
352.94 K, 4000 kPa, x1 = 0.0018 | 759.35
352.94 K, 4000 kPa, x1 = 0.0112 | 776.07
352.94 K, 4000 kPa, x1 = 0.0142 | 780.73
352.94 K, 5000 kPa, x1 = 0.0018 | 760.39
352.94 K, 5000 kPa, x1 = 0.0112 | 777.15
352.94 K, 5000 kPa, x1 = 0.0142 | 781.74
352.94 K, 6000 kPa, x1 = 0.0018 | 761.42
352.94 K, 6000 kPa, x1 = 0.0112 | 778.1
352.94 K, 6000 kPa, x1 = 0.0142 | 782.74
352.94 K, 7000 kPa, x1 = 0.0018 | 762.46
352.94 K, 7000 kPa, x1 = 0.0112 | 779.1
352.94 K, 7000 kPa, x1 = 0.0142 | 783.74
352.94 K, 8000 kPa, x1 = 0.0018 | 763.48
352.94 K, 8000 kPa, x1 = 0.0112 | 780.11
352.94 K, 8000 kPa, x1 = 0.0142 | 784.73
352.94 K, 9000 kPa, x1 = 0.0018 | 764.5
352.94 K, 9000 kPa, x1 = 0.0112 | 781.09
352.94 K, 9000 kPa, x1 = 0.0142 | 785.73
352.94 K, 10000 kPa, x1 = 0.0018 | 765.51
352.94 K, 10000 kPa, x1 = 0.0112 | 782.07
352.94 K, 10000 kPa, x1 = 0.0142 | 786.7
352.94 K, 11000 kPa, x1 = 0.0018 | 766.51
352.94 K, 11000 kPa, x1 = 0.0112 | 783.04
352.94 K, 11000 kPa, x1 = 0.0142 | 787.66
352.94 K, 12000 kPa, x1 = 0.0018 | 767.49
352.94 K, 12000 kPa, x1 = 0.0112 | 784.02
352.94 K, 12000 kPa, x1 = 0.0142 | 788.61
352.94 K, 13000 kPa, x1 = 0.0018 | 768.45
352.94 K, 13000 kPa, x1 = 0.0112 | 784.98
352.94 K, 13000 kPa, x1 = 0.0142 | 789.57
352.94 K, 14000 kPa, x1 = 0.0018 | 769.42
352.94 K, 14000 kPa, x1 = 0.0112 | 785.8
352.94 K, 14000 kPa, x1 = 0.0142 | 790.48
352.94 K, 15000 kPa, x1 = 0.0018 | 770.37
352.94 K, 15000 kPa, x1 = 0.0112 | 786.85
352.94 K, 15000 kPa, x1 = 0.0142 | 791.41
352.94 K, 16000 kPa, x1 = 0.0018 | 771.31
352.94 K, 16000 kPa, x1 = 0.0112 | 787.79
352.94 K, 16000 kPa, x1 = 0.0142 | 792.32
352.94 K, 17000 kPa, x1 = 0.0018 | 772.22
352.94 K, 17000 kPa, x1 = 0.0112 | 788.61
